From patent US20210392892A1, “COMPOSITIONS COMPRISING PYRIDINE CARBOXYLATE HERBICIDES AND ACETYL COA CARBOXYLASE (ACCASE) INHIBITOR HERBICIDES” (Corteva Agriscience LLC, priority 2018, published 2021)

Assays:
Assay in all cases: Greenhouse postemergence herbicidal effect (visual injury)
Format in all cases: in vivo
[1] = system: AVEFA, Avena fatua (wild oat)
Text: (§1) Seeds of the desired test plant species were planted in a 90:10% v/v (volume/volume) mixture of PRO-MIX® BX (Premier Tech Horticulture, Quakertown, Pa., USA) and PROFILE® GREENS GRADE™ (Profile Products LLC, Buffalo Grove, Ill., USA) planting mixture, which typically has a pH of 5.2 to 6.2 and an organic matter content of at least 50 percent, in plastic pots with a surface area of 103.2 square centimeters (cm^2). In some aspects, to help ensure good germination and healthy plants, a fungicide treatment and/or other chemical or physical treatment was applied. The plants were grown for 7-36 days (d) in a greenhouse with an approximate 14-hour (h) photoperiod which was maintained at about 23° C. during the day and 22° C. during the night. Nutrients and water were added on a regular basis and supplemental lighting was provided with overhead metal halide 1000-Watt lamps as necessary. The plants were employed for testing when they reached the second or third true leaf stage.
(§2) Emulsifiable concentrates of each of each pyridine carboxylate herbicide (Compound A or Compound B) were prepared at 100 grams acid equivalent per liter (g ae/L). The emulsifiable concentrates also included a safener, cloquintocet-mexyl, at 120 grams active ingredient per liter (g ai/L), unless otherwise noted below. An aliquot of each emulsifiable concentrate was placed in a 25 mL glass vial and diluted with an aqueous mixture of 1.25% (v/v) ACTIROB® B esterified rapeseed oil (Bayer Crop Science, Research Triangle Park, N.C., USA) or MSO® Concentrate with LECI-TECH® methylated soybean oil (Loveland Products, Loveland, Colo., USA) to obtain concentrated stock solutions at the highest application rate for each herbicide, based upon a 12 milliliter (mL) application volume at a rate of 187 liters per hectare (L/ha). The concentrated stock solutions were further diluted with an aqueous mixture of 1.25% v/v ACTIROB® B or MSO® Concentrate with LECI-TECH® to obtain stock solutions at reduced application rates for each herbicide. Spray solutions of the herbicide combinations (Compound A or Compound B plus ACCase inhibitor herbicide) were prepared by adding weighed amounts or aliquots of the ACCase inhibitor herbicide to the stock solutions of Compound A or Compound B to form 12-mL spray solutions in two-way combinations.
(§3) The spray solutions were applied to the plant material with an overhead Mandel track sprayer equipped with 8002E nozzles calibrated to deliver 187 L/ha over an application area of 0.503 square meters (m^2) at a spray height of 18 inches (43 centimeters (cm)) above the average plant canopy. Control plants were sprayed in the same manner with the solvent blank. All pyridine carboxylate herbicide (component a) application rates are given as “g ae/ha” and all ACCase inhibitor herbicide (component b) application rates are given as “g ai/ha.”
(§4) The treated plants and control plants were placed in a greenhouse as described above and watered by sub-irrigation to prevent wash-off of the test compounds. After 20-22 d, the condition of the test plants as compared with that of the control plants was determined visually and scored on a scale of 0 to 100 percent where 0 corresponds to no injury and 100 corresponds to complete kill.

[2] = system: CYPES, Cyperus esculentus (nutsedge)
Text: as §1, §2, §3, §4

[3] = system: LOLMU, Lolium multiflorum (Italian ryegrass)
Text: as §1, §2, §3, §4

[4] = system: LOLMG, Lolium multiflorum subsp. gaudini (annual ryegrass)
Text: as §1, §2, §3, §4

ZEAMX, Zea mays (maize) = system: ZEAMX, Zea mays (maize)
Text: as §1, §2, §3, §4

[5] = system: DIGSA, Digitaria sanguinalis (large crabgrass)
Text: as §1, §2, §3, §4

[6] = system: ECHCG, Echinochloa crus-galli (barnyardgrass)
Text: as §1, §2, §3, §4

[7] = system: SETFA, Setaria faberi (giant foxtail)
Text: as §1, §2, §3, §4

[8] = system: ALOMY, Alopecurus myosuroides (blackgrass)
Text: as §1, §2, §3, §4

[9] = system: ORYSA, Oryza sativa (common rice)
Text: as §1, §2, §3, §4

[10] = system: STEME, Stellaria media (chickweed)
Text: as §1, §2, §3, §4

[11] = system: BRSNN, Brassica napus (spring rape); conditions: 70 g ai/ha
Text: as §1, §2, §3, §4

[12] = system: KCHSC, Kochia scoparia (kochia)
Text: as §1, §2, §3, §4

[13] = system: RUMOB, Rumex obtusifolius (broad-leaf dock)
Text: as §1, §2, §3, §4

[14] = system: LEFCH, Leptochloa chinensis (Chinese sprangletop)
Text: as §1, §2, §3, §4

[15] = system: SORVU, Sorghum vulgare (grain sorghum)
Text: as §1, §2, §3, §4

[16] = system: POLCO, Polygonum convolvulus (wild buckwheat)
Text: as §1, §2, §3, §4

[17] = system: VIOTR, Viola tricolor (wild pansy)
Text: as §1, §2, §3, §4

[18] = system: CIRAR, Cirsium arvense (Canadian thistle)
Text: as §1, §2, §3, §4

[19] = system: HELAN, Helianthus annuus (common sunflower)
Text: as §1, §2, §3, §4

[20] = system: GLXMA, Glycine max (soybean)
Text: as §1, §2, §3, §4

[21] = system: IPOHE, Ipomoea hederacea (ivyleaf morningglory)
Text: as §1, §2, §3, §4

[22] = system: ABUTH, Abutilon theophrasti (velvetleaf)
Text: as §1, §2, §3, §4

[23] = system: BRSNW, Brassica napus (winter rape)
Text: as §1, §2, §3, §4

## Fenoxaprop
[1]; 46 g ai/ha
  % visual injury, Obs: 68%
[2]; 46 g ai/ha
  % visual injury, Obs: 0%
[3]; 46 g ai/ha
  % visual injury, Obs: 5%
[4]; 46 g ai/ha
  % visual injury, Obs: 0%
ZEAMX, Zea mays (maize); 46 g ai/ha
  % visual injury, Obs: 100%
[5]; 46 g ai/ha
  % visual injury, Obs: 96%
[6]; 46 g ai/ha
  % visual injury, Obs: 100%
[7]; 46 g ai/ha
  % visual injury, Obs: 100%
[8]; 46 g ai/ha
  % visual injury, Obs: 0%
[9]; 46 g ai/ha
  % visual injury, Obs: 35%

## CCCC(=NOCC)C1=C(O)CC(CC(C)SCC)CC1=O (stereo not shown) [Sethoxydim, reference compound]
[10]; 70 g ai/ha
  % visual injury, Obs: 0%
[11]
  % visual injury, Obs: 0%
[12]; 70 g ai/ha
  % visual injury, Obs: 0%
[13]; 70 g ai/ha
  % visual injury, Obs: 0%

## CCOC(=O)[C@@H](C)Oc1ccc(Oc2cnc3cc(Cl)ccc3n2)cc1 [Quizalofop-P-ethyl, reference compound]
[14]; LEFCH, Compound A 0 g/ha, Quizalofop-P-ethyl 75 g/ha
  % visual injury, Obs: 100%
[7]; SETFA, Compound A 0 g/ha, Quizalofop-P-ethyl 75 g/ha
  % visual injury, Obs: 100%

## C#CCOC(=O)[C@@H](C)Oc1ccc(Oc2ncc(Cl)cc2F)cc1
[4]; 30 g ai/ha
  % visual injury, Obs: 15%
ZEAMX, Zea mays (maize); 30 g ai/ha
  % visual injury, Obs: 90%
[7]; 30 g ai/ha
  % visual injury, Obs: 98%
[9]; 30 g ai/ha
  % visual injury, Obs: 83%

## CCSC(C)CC1CC(=O)C(C(CC)=NOC/C=C/Cl)=C(O)C1 (stereo not shown) [Clethodim, reference compound]
[15]; 70 g ai/ha
  % visual injury, Obs: 98%
[16]; 70 g ai/ha
  % visual injury, Obs: 0%
[17]; 70 g ai/ha
  % visual injury, Obs: 0%
[10]; 70 g ai/ha
  % visual injury, Obs: 0%
[14]; 70 g ai/ha
  % visual injury, Obs: 95%
[18]; 70 g ai/ha
  % visual injury, Obs: 0%
[19]; 70 g ai/ha
  % visual injury, Obs: 0%
[12]; 70 g ai/ha
  % visual injury, Obs: 0%
[20]; 70 g ai/ha
  % visual injury, Obs: 5%
[21]; 70 g ai/ha
  % visual injury, Obs: 0%
[22]; 70 g ai/ha
  % visual injury, Obs: 0%
[13]; 70 g ai/ha
  % visual injury, Obs: 0%
[7]; 70 g ai/ha
  % visual injury, Obs: 90%
[23]; 70 g ai/ha
  % visual injury, Obs: 0%

## Fluazifop [reference compound]
[1]; 105 g ai/ha
  % visual injury, Obs: 93%
[1]; AVEFA, Compound A 0 g/ha, Fluazifop 105 g/ha
  % visual injury, Obs: 95%
[2]; 105 g ai/ha
  % visual injury, Obs: 5%
[2]; CYPES, Compound A 0 g/ha, Fluazifop 105 g/ha
  % visual injury, Obs: 0%
[3]; 105 g ai/ha
  % visual injury, Obs: 80%
[3]; LOLMU, Compound A 0 g/ha, Fluazifop 105 g/ha
  % visual injury, Obs: 88%
[15]; SORVU, Compound A 0 g/ha, Fluazifop 105 g/ha
  % visual injury, Obs: 100%
[16]; POLCO, Compound A 0 g/ha, Fluazifop 105 g/ha
  % visual injury, Obs: 0%
[17]; VIOTR, Compound A 0 g/ha, Fluazifop 105 g/ha
  % visual injury, Obs: 3%
[10]; STEME, Compound A 0 g/ha, Fluazifop 105 g/ha
  % visual injury, Obs: 0%
[14]; 105 g ai/ha
  % visual injury, Obs: 100%
[14]; LEFCH, Compound A 0 g/ha, Fluazifop 105 g/ha
  % visual injury, Obs: 98%
[18]; CIRAR, Compound A 0 g/ha, Fluazifop 105 g/ha
  % visual injury, Obs: 5%
[5]; 105 g ai/ha
  % visual injury, Obs: 95%
[5]; DIGSA, Compound A 0 g/ha, Fluazifop 105 g/ha
  % visual injury, Obs: 95%
[6]; 105 g ai/ha
  % visual injury, Obs: 95%
[6]; ECHCG, Compound A 0 g/ha, Fluazifop 105 g/ha
  % visual injury, Obs: 95%
[19]; HELAN, Compound A 0 g/ha, Fluazifop 105 g/ha
  % visual injury, Obs: 0%
[12]; KCHSC, Compound A 0 g/ha, Fluazifop 105 g/ha
  % visual injury, Obs: 0%
[20]; GLXMA, Compound A 0 g/ha, Fluazifop 105 g/ha
  % visual injury, Obs: 28%
[21]; IPOHE, Compound A 0 g/ha, Fluazifop 105 g/ha
  % visual injury, Obs: 0%
[22]; ABUTH, Compound A 0 g/ha, Fluazifop 105 g/ha
  % visual injury, Obs: 0%
[13]; RUMOB, Compound A 0 g/ha, Fluazifop 105 g/ha
  % visual injury, Obs: 0%
[7]; 105 g ai/ha
  % visual injury, Obs: 90%
[7]; SETFA, Compound A 0 g/ha, Fluazifop 105 g/ha
  % visual injury, Obs: 85%
[8]; 105 g ai/ha
  % visual injury, Obs: 93%
[8]; ALOMY, Compound A 0 g/ha, Fluazifop 105 g/ha
  % visual injury, Obs: 85%
[23]; BRSNW, Compound A 0 g/ha, Fluazifop 105 g/ha
  % visual injury, Obs: 0%

## CCON=C(CC)C1=C(O)CC(c2c(C)cc(C)cc2C)CC1=O (stereo not shown) [Tralkoxydim, 2-[1-(ethoxyimino)propyl]-3-hydroxy-5-mesitylcyclohex-2-enone]
[4]; 100 g ai/ha
  % visual injury, Obs: 70%
[15]; 100 g ai/ha
  % visual injury, Obs: 65%
[7]; 100 g ai/ha
  % visual injury, Obs: 40%

## CCc1cc(C)cc(CC)c1-c1c(OC(=O)C(C)(C)C)n2n(c1=O)CCOCC2 [Pinoxaden]
[4]; 30 g ai/ha
  % visual injury, Obs: 94%
ZEAMX, Zea mays (maize); 30 g ai/ha
  % visual injury, Obs: 5%
[7]; 30 g ai/ha
  % visual injury, Obs: 10%
[9]; 30 g ai/ha
  % visual injury, Obs: 99%

## COC(=O)[C@@H](C)Oc1ccc(Oc2ncc(C(F)(F)F)cc2Cl)cc1 [Haloxyfop-R-methyl, reference compound]
[14]; LEFCH, Compound A 0 g/ha, Haloxyfop-R-methyl 70 g/ha
  % visual injury, Obs: 100%
[7]; SETFA, Compound A 0 g/ha, Haloxyfop-R-methyl 70 g/ha
  % visual injury, Obs: 100%

## C#CCOC(=O)c1nc(-c2ccc3cc[nH]c3c2F)c(F)c(N)c1Cl [Compound B, propargyl 4-amino-3-chloro-5-fluoro-6-(7-fluoro-1H-indol-6-yl)pyridine-2-carboxylate]
[15]; 7.5 g ae/ha, with cloquintocet-mexyl
  % visual injury, Obs: 10%
[15]; 10 g ae/ha, with cloquintocet-mexyl
  % visual injury, Obs: 20%
